Values joined by “and” are separate entries in the source; they are usually repeats but may differ in a detail not shown here. Equal entries are not always repeated.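 96-well plates; 48 h exposure; 5 concentrations. Endpoints by linear interpolation between flanking doses. Not reached: highest tested concentration assigned. At the GI50, growth is halved. TGI is the concentration that stops growth completely.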
Tests used:
Assay in all cases: growth of human tumour cells (NCI), 48 h
HCT-116 colon = system: HCT-116 colon
HCC-2998 colon = system: HCC-2998 colon
SW-620 colon = system: SW-620 colon
OVCAR-3 ovarian = system: OVCAR-3 ovarian
OVCAR-4 ovarian = system: OVCAR-4 ovarian
TK-10 renal = system: TK-10 renal
HT29 colon = system: HT29 colon
HOP-62 NSCLC = system: HOP-62 NSCLC
A498 renal = system: A498 renal
786-0 renal = system: 786-0 renal
ACHN renal = system: ACHN renal
CCRF-CEM leukemia = system: CCRF-CEM leukemia
UO-31 renal = system: UO-31 renal
HCT-15 colon = system: HCT-15 colon
NCI-H23 lung = system: NCI-H23 lung
OVCAR-8 ovarian = system: OVCAR-8 ovarian
NCI-H522 lung = system: NCI-H522 lung
T-47D breast = system: T-47D breast
A549 NSCLC = system: A549 NSCLC
SK-MEL-2 melanoma = system: SK-MEL-2 melanoma
COLO 205 colon = system: COLO 205 colon
MALME-3M melanoma = system: MALME-3M melanoma
RPMI-8226 leukemia = system: RPMI-8226 leukemia
BT-549 breast = system: BT-549 breast
MCF7 breast = system: MCF7 breast
CAKI-1 renal = system: CAKI-1 renal
HS 578T breast = system: HS 578T breast
SF-539 CNS = system: SF-539 CNS
KM12 colon = system: KM12 colon

With `CS(=O)(=O)Nc1cc(-c2ccc3ncnc(Nc4ccc(F)c(Cl)c4)c3c2)cnc1Cl` the GI50 (HCT-116 colon) was 783 nM and 946 nM, the TGI (HCT-116 colon) was 3220 nM and 5220 nM and the GI50 (HCC-2998 colon) was 1210 nM. The TGI (HCC-2998 colon) was 4050 nM, the GI50 (SW-620 colon) was 741 nM and 1010 nM and the TGI (SW-620 colon) was 11200 nM and 11900 nM. The GI50 (OVCAR-3 ovarian) was 360 nM and 616 nM, the TGI (OVCAR-3 ovarian) was 1920 nM and 5330 nM and the GI50 (OVCAR-4 ovarian) was 1220 nM and 1470 nM. For the same compound, the TGI (OVCAR-4 ovarian) was 10800 nM and 10400 nM, the GI50 (TK-10 renal) was 261 nM and the TGI (TK-10 renal) was 2280 nM. The GI50 (HT29 colon) was 369 nM and 503 nM, the TGI (HT29 colon) was 6820 nM and 7810 nM and the GI50 (HOP-62 NSCLC) was 295 nM and 1120 nM. The TGI (HOP-62 NSCLC) was 9010 nM and 27100 nM, the GI50 (A498 renal) was 199 nM and 130 nM and the TGI (A498 renal) was 664 nM and 555 nM. For the same compound, the GI50 (786-0 renal) was 638 nM and 671 nM, the TGI (786-0 renal) was 5450 nM and 6650 nM and the GI50 (ACHN renal) was 404 nM and 575 nM. For the same compound, the TGI (ACHN renal) was 13800 nM and > 42500 nM, the GI50 (CCRF-CEM leukemia) was 378 nM and 309 nM and the TGI (CCRF-CEM leukemia) was 11900 nM and 28100 nM. For the same compound, the GI50 (UO-31 renal) was 204 nM, the TGI (UO-31 renal) was 1690 nM and the GI50 (HCT-15 colon) was 559 nM and 542 nM. The TGI (HCT-15 colon) was 11200 nM and 11600 nM, the GI50 (NCI-H23 lung) was 484 nM and 570 nM and the TGI (NCI-H23 lung) was 14700 nM and 10600 nM. For the same compound, the GI50 (OVCAR-8 ovarian) was 1680 nM and 1720 nM, the TGI (OVCAR-8 ovarian) was 12900 nM and > 40400 nM and the GI50 (NCI-H522 lung) was 400 nM and 815 nM. The TGI (NCI-H522 lung) was 3900 nM and 9800 nM, the GI50 (T-47D breast) was 32.3 nM and 90.1 nM and the TGI (T-47D breast) was 437 nM and 892 nM. For the same compound, the GI50 (A549 NSCLC) was 1140 nM and 1260 nM, the TGI (A549 NSCLC) was 4670 nM and 5810 nM and the GI50 (SK-MEL-2 melanoma) was 289 nM and 441 nM. For the same compound, the TGI (SK-MEL-2 melanoma) was 1530 nM and 2320 nM, the GI50 (COLO 205 colon) was 562 nM and 1060 nM and the TGI (COLO 205 colon) was 2190 nM and 4530 nM. The GI50 (MALME-3M melanoma) was 191 nM and 179 nM, the TGI (MALME-3M melanoma) was 1130 nM and 1560 nM and the GI50 (RPMI-8226 leukemia) was 444 nM and 598 nM. The TGI (RPMI-8226 leukemia) was 2670 nM and 3400 nM, the GI50 (BT-549 breast) was 307 nM and 287 nM and the TGI (BT-549 breast) was 3360 nM and 2680 nM. For the same compound, the GI50 (MCF7 breast) was 216 nM and 227 nM, the TGI (MCF7 breast) was 11400 nM and 11800 nM and the GI50 (CAKI-1 renal) was 455 nM and 326 nM. The TGI (CAKI-1 renal) was 9550 nM and 2230 nM, the GI50 (HS 578T breast) was 182 nM and 190 nM and the TGI (HS 578T breast) was 2690 nM. The GI50 (SF-539 CNS) was 431 nM and 541 nM, the TGI (SF-539 CNS) was 2520 nM and 3330 nM and the GI50 (KM12 colon) was 1240 nM and 1710 nM. The TGI (KM12 colon) was 3390 nM and 8130 nM.

From PubChem BioAssay (NCI)
